Reference: PMC10931776, “Modes of Interactions with DNA/HSA Biomolecules and Comparative Cytotoxic Studies of Newly Synthesized Mononuclear Zinc(II) and Heteronuclear Platinum(II)/Zinc(II) Complexes toward Colorectal Cancer Cells” (International Journal of Molecular Sciences, 2024)

Experiments:
[1] = test system: human colorectal carcinoma (SW480); experiment: MTT cytotoxicity assay, SW480; type: cell-based; conditions: 48 h
Method: (§1) The in vitro cytotoxicity of newly synthesized mono- and heteronuclear platinum(II)/and zinc(II) complexes, featuring a 4,4′,4″-tri-tert-butyl-2,2′:6′,2″-terpyridine ligand (designated as C1–C5), was assessed using MTT assay procedures. This evaluation targeted various cell lines: mouse colorectal carcinoma (CT26), human colorectal carcinoma (HCT116 and SW480), and non-cancerous mouse mesenchymal stem cells (mMSC). These cell lines were exposed to synthesized complexes for 48 h, with concentrations ranging from 1.17 to 150 μM.
(§2) In our study, various cell lines were cultured, including mouse colorectal carcinoma (CT26), human colorectal carcinoma (HCT116 and SW480) obtained from ATCC, USA, and mouse mesenchymal stem cells (mMSC, Gibco), New York, NY, USA). These cell lines were consistently maintained in complete Dulbecco’s Modified Eagle Medium (DMEM) supplemented with 10% fetal bovine serum (FBS) (Sigma Aldrich, St. Louis, MO, USA), 100 IU/mL penicillin, and 100 μg/mL streptomycin antibiotics (Invitrogen, Carlsbad, CA, USA). The cultures were incubated at 37 °C in a humidified atmosphere of 5% carbon dioxide (CO2). […] The viability and count of the cells were determined using Trypan blue staining, ensuring the accuracy and reliability of the experimental outcomes.
(§3) The cytotoxic effects of five newly synthesized complexes, alongside cisplatin, were assessed through the MTT assay method, in line with previously established protocols. During the exponential growth phase, cells were collected from culture flasks, counted, and then seeded in 96-well culture plates at a density of 5·10^3 cells per well. Subsequent treatment involved exposing these cells to varying concentrations of the newly synthesized complexes and cisplatin (ranging from 1.17 to 150 μM) for a duration of 48 h, with fresh complete medium serving as the control. The results were quantified relative to the control (untreated cells), providing a comparative measure of cytotoxicity. Additionally, IC50 values, representing the concentration required to inhibit 50% of the cell viability, were calculated using Microsoft Office Excel 2010. Lastly, the data were presented as percentages of viable cells in accordance with the methodology outlined in the referenced study, facilitating a comprehensive understanding of the anticancer potential of these compounds.

[2] = test system: mouse colorectal carcinoma (CT26); experiment: MTT cytotoxicity assay, CT26; type: cell-based; conditions: 48 h
Method: as §1, §2, §3

[3] = test system: mouse mesenchymal stem cells (mMSC); experiment: MTT cytotoxicity assay, mMSC; type: cell-based; conditions: 48 h
Method: as §1
In the context of developing low-toxicity drugs, it is imperative to evaluate the antiproliferative activity against normal cells. The in vitro toxicity of the tested complexes toward normal mouse mesenchymal stem cells (mMSC) was examined. […] These findings indicate the possibility of enhanced in vivo tolerance for this complex.
as §2, §3

[4] = target: T1, Human serum albumin (HSA) (Homo sapiens, UniProt P02768); experiment: HSA fluorescence quenching; type: binding; conditions: HSA 2 µM, complex 0–30 µM, PBS pH 7.4, room temperature, λex 295 nm
T1 construct: reagents in general came from Sigma-Aldrich, Acros Organics or Merck
Text: Human serum albumin (HSA) produces a fluorescence signal when excited at 295 nm due to the tryptophan residues. This characteristic makes fluorescence spectroscopy an effective tool for studying complex interactions involving HSA. If the examined complex interacts with HSA, an increasing concentration of the complex will lead to a decrease in fluorescence, as shown in Figure 4 and Figures S14–S17. […] The Stern–Volmer equation (Equation (S2)) was used to determine the Stern–Volmer constant, Ksv, for the HSA interactions.
The binding affinity of the complexes C1–C5 to HSA has been determined through fluorescence quenching experiments. The measurements were conducted in a 0.01 M PBS with a pH of 7.4 at room temperature. The HSA concentration was kept constant at 2 μM while the concentration of complexes C1–C5 was increased from 0 to 30 μM, resulting in a significant decrease in emissions at 352 nm. Before each measurement, the system was shaken at room temperature. The fluorescence intensity was measured with the wavelength of excitation at 295 nm and recorded in the 300 to 500 nm range. The width of the excitation and emission slits (10 nm) and scan rate were maintained at a constant rate. The Stern–Volmer constants, Ksv, were determined by Equation (2).

CT26 cells = experiment: Annexin V FITC / Propidium Iodide apoptosis flow cytometry; type: cell-based, mouse; conditions: CT26, 24 h treatment
Method: The capacity of the C1 complex to induce apoptotic death in cancer cells was assessed using flow cytometric analysis. This analysis involved treating cells with the C1 complex and subsequently staining them with Annexin V FITC and Propidium Iodide. […] In a similar vein, in a related context, NCI-H460 cancer cells, which are a line of human large-cell lung carcinoma cells, were subjected to treatment with binuclear platinum(II) complexes. These complexes feature 4′-substituted-2,2′:6′,2″-terpyridine ligands and were administered for a duration of 24 h. Following this treatment, there was a significant increase in the proportion of apoptotic cells, correlating strongly with exposure to these specific ligands.
The evaluation of apoptosis in cells subjected to treatment was conducted employing the Annexin V and Propidium Iodide double staining assay in accordance with the methodology outlined in prior studies. This approach enabled the determination of the percentage of apoptotic cells. In further experiments, cells were fixed and permeabilized using a permeabilization buffer provided by BD Bioscience, Heidelberg, Germany. […] The analysis of these treated cells was carried out using a FACS Calibur flow cytometer (BD Biosciences, San Jose, CA, USA) and the resulting data were meticulously analyzed with FlowJo software (v10.8.2). […]

T1 sequence (P02768 25-609): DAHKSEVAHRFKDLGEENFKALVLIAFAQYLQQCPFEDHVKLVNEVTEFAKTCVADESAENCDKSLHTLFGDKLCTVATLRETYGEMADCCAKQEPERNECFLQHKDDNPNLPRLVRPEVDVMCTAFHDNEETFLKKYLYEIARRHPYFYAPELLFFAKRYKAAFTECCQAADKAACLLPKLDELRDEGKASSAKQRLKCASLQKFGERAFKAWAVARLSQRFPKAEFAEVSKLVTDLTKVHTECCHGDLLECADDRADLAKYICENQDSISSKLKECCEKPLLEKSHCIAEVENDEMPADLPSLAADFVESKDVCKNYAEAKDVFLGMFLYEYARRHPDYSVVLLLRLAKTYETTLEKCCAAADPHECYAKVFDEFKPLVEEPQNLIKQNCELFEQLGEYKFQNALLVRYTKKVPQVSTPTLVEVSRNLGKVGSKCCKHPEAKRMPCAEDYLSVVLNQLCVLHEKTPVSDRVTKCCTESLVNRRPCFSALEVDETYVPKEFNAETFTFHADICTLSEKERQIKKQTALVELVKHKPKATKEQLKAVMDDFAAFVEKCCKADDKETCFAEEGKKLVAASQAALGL

With [ZnCl2(terpy^t^Bu)] [C1] the “Selectivity Index (IC50 mMSC/IC50), SW480” value [1] was 0.5, the IC50 ([1]; read-out: IC50 ± SEM, SW480) was 106 ± 126 µM and the “Selectivity Index (IC50 mMSC/IC50), CT26” value [2] was 1.3. The IC50 ([2]; read-out: IC50 ± SEM, CT26) was 44.7 ± 58.7 µM, the “Cytotoxic effect on mMSC compared to cancer cells (HCT116, SW480, CT26)” value ([3]; concentrations 1.17 to 18.75 μM) was “lower cytotoxic effect” and the IC50 ([3]; non-cancerous cells, read-out: IC50 ± SEM, mMSCs) was 56.7 ± 6.93 µM. For the same substance, the “Stern–Volmer constant Ksv, HSA” value [4] was 1.8 ± 0.1 10^4 M^–1, the “Induction of apoptotic cell death” value (CT26 cells; Annexin V FITC/PI) was “entered both early and late stages of apoptosis” and the “Quadrant number upper left of PI / Annexin V plot (necrotic, AnnV−PI+)” value (CT26 cells; representative FACS plot, untreated 1.55) was “underwent necrosis”.
